The source of these data is patent US8507469B2, “Azetidin compounds suitable for treating disorders that respond to modulation of the serotonin 5-HT6 receptor” (Abbott GmbH & Co. KG, priority 2007, dated 2013).

A word on the Ki: it is a dissociation constant, usually derived from enzyme kinetics or from competition with a known ligand. By Kd is commonly meant a measure of binding affinity in units of concentration.

Where a name gives a salt, the structure may show the parent alone.

Experiment [1] concerns the target T1, h-5-HT6 receptor (Homo sapiens, UniProt P50406).
T1 construct: expressed in transfected cells
Briefly: 5-HT6 receptor binding assay (displacement of [3H]-LSD). Particulars: HEK293 membranes, 1 nM [3H]-LSD. Here is the method: (§1) Cells from stable clonal cell lines expressing the corresponding receptor (5-HT6, 1-adrenergic, dopamine D2 or histamine H1 receptors) were washed with PBS (w/o Ca^++, Mg^++) and harvested in PBS with 0.02% EDTA. The cells were collected by centrifugation at 500 g for 10 min. at 4° C., washed with PBS and centrifuged (500 g, 10 min. 4° C.). The pellets were stored at −80° C. until use. For membrane preparation, the thawed cell pellet was resuspended in ice-cold sucrose buffer (0.25 M sucrose, 10 mM Hepes (pH 7.4), 1 mM Phenylmethylsulfonyl fluoride (PMSF) in DMSO, […] Pepstatin-A, 3 mM EDTA, 0.025% Bacitracin) and homogenized with a Branson Sonifier W-250 (Settings: Timer 4; Output Control 3; Duty Cycle constant; 2 to 3 cycles). Cell disruption was checked with the aid of a microscope. Remaining unbroken cells were pelleted at 1.000 g for 10 min. at 4° C. The sucrose buffer supernatant was then centrifuged at 60.000 g for 1 h at 4° C. (Beckman Ultrazentrifuge XL 80). The pellet was resuspended in 30 ml ice-cold Tris buffer (20 mM TRIS (pH 7.4), […] Pepstatin A, 0.1 mM PMSF, 3 mM EDTA) by pipetting through a 10 ml serological pipet and centrifuged for 1 h at 4° C. at 60.000 g. A final resuspension was performed in a small volume of ice-cold Tris buffer (see above) by pressing through a serological pipet followed by ultrasonic treatment with a Branson Sonifier W-250 (Settings: Timer 1; Output Control 3; Duty Cycle constant; 1 cycle). Protein concentration was determined (BCA-Kit; Pierce) and aliquots stored at −80° C. or in liquid nitrogen for long-term storage.
(§2) All receptor binding experiments were carried out in the corresponding assay buffer in a total volume of 200 μl in the presence of various concentrations of test compound (10^−5 M to 10^−9 M, tenfold serial dilution, duplicate determinations). The assays were terminated by filtration on polyethylenimine (PEI 0.1% or 0.3%) presoaked Packard Unifilter Plates (GF/C or GF/B) with a Tomtec MachIII U 96well-plate harvester. After the plates had been dried for 2 h at 55° C. in a drying chamber scintillation cocktail (BetaPlate Scint; PerkinElmer) was added. Radioactivity was measured in a Microbeta Trilux two hours after the addition of the scintillation mixture. Data derived from liquid scintillation counting were analysed by iterative non-linear regression analysis with the use of the Statistical Analysis System (SAS): a program similar to “LIGAND” as described by Munson and Rodbard (Analytical Biochemistry 107, 220-239 (1980).
HEK293 cells stably expressing the h-5-HT6 receptor (NCBI Reference Sequence XM 001435) were cultured in RPMI1640 medium supplemented with 25 mM HEPES, 10% fetal calf serum and 1-2 mM glutamine. The membrane preparation was performed as described in section 1. […] Non-specific binding was defined with 1 μM methiothepin. The binding reaction was carried out for 3.5 h at room temperature. During the incubation, the plates were shaken on a plate shaker at 100 rpm and terminated by filtration on Packard Unifilter GF/C (0.1% PEI) plates, followed by 2 wash cycles with ice-cold 50 mM Tris-HCl, 5 mM CaCl2.
(§3) Data derived from liquid scintillation counting were analyzed by iterative non-linear regression analysis with the use of the Statistical Analysis System (SAS): a program similar to “LIGAND” as described by Munson and Rodbard (Anal. Biochem. 1980, 107, 220-239). Fitting was performed according to formulae described by Feldman (Anal. Biochem. 1972, 48, 317-338). IC50, nH and Ki values were expressed as geometrical mean.
In general terms: Loss of bound radioactivity is the signal in a displacement assay; it reports binding, not function.

The target in experiment [2] is T2, dopamine D2 receptor (Homo sapiens, UniProt P14416).
T2 construct: expressed in transfected cells
T2 sequence (P14416 whole entry): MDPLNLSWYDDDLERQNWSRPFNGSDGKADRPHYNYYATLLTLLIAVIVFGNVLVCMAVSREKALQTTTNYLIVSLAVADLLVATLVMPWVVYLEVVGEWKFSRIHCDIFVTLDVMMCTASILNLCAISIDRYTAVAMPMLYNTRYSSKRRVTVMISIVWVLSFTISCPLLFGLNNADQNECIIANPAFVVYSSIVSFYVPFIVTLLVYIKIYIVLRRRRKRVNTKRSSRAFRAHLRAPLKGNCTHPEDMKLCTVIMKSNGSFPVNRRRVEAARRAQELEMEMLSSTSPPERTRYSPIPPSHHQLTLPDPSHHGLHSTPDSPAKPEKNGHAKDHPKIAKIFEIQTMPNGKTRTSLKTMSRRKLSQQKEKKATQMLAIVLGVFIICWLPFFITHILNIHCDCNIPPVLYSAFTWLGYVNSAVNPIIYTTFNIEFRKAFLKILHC
Briefly: Dopamine D2 receptor binding assay (displacement of [125I]-iodospiperone). Particulars: for Ki: HEK293 membranes, 0.01 nM [125I]-iodospiperone. As for the experimental part:
as §1, §2
HEK293 cells stably expressing the dopamine D2 receptor (NCBI Reference Sequence NM_000795) were cultured in RPMI1640 medium supplemented with 25 mM HEPES, 10% fetal calf serum and 1-2 mM glutamine. The membrane preparation was performed as described in section 1. […] On the day of the assay, the membranes were thawed, diluted in assay buffer (50 mM Tris-HCl, 120 mM NaCl, 5 mM MgCl2, 5 mM KCl, 1.5 mM CaCl2, pH 7.4) to a concentration of 15 μg protein/assay and homogenized by gentle vortexing. For inhibition studies, 0.01 nM [^125I]-iodospiperone (PerkinElmer Life Sciences, NEX284) was incubated in the presence of various concentrations of test compound in assay buffer. Non-specific binding was defined with 1 μM haloperidol. The binding reaction was carried out for 1 h at room temperature and terminated by filtration on Packard Unifilter GF/B (0.1% PEI) plates, followed by 6 wash cycles with an ice-cold 7% polyethylenglycol solution.
as §3

Experiment [3] addresses T3, α1-adrenergic receptor (Homo sapiens, UniProt P35348).
T3 construct: expressed in transfected cells
Nature of the experiment: α1-adrenergic receptor binding assay (displacement of [3H]-prazosine). The settings on record: CHO-K1 membranes, 0.1 nM [3H]-prazosine. As for the experimental part:
as §1, §2
CHO-K1 cells stably expressing the 1-adrenergic receptor (NCBI Reference Sequence NM_033303) were cultured in RPMI1640 medium supplemented with 25 mM HEPES, 10% fetal calf serum and 1-2 mM glutamine. The membrane preparation was performed as described in section 1. […] On the day of the assay, the membranes were thawed, diluted in assay buffer (50 mM Tris-HCl, pH 7.4) to a concentration of 4 μg protein/assay and homogenized by gentle vortexing. […] Non-specific binding was defined with 1 μM phentolamine. The binding reaction was carried out for 1 h at room temperature and terminated by filtration on Packard Unifilter GF/C (0.1% PEI) plates, followed by 3 wash cycles with ice-cold assay buffer.
as §3

Experiment [4] concerns the target histamine H1 receptor (Homo sapiens, UniProt P35367). Briefly: H1 receptor binding assay (displacement of [3H]-pyrilamine). The settings on record: CHO-K1 membranes, 1 nM [3H]-pyrilamine. Here is the method:
as §1, §2
CHO-K1 cells stably expressing the histamine H1 receptor (Euroscreen-ES-390-C, NCBI Reference Sequence NM_000861) were cultured in RPMI1640 medium supplemented with 25 mM HEPES, 10% fetal calf serum and 1-2 mM glutamine. The membrane preparation was performed as described in section 1. […] On the day of the assay, the membranes were thawed, diluted in assay buffer (50 mM Na2HPO4, 50 mM KH2PO4, pH 7.4) to a concentration of 6 μg protein/assay and homogenized by gentle vortexing. […] The binding reaction was carried out for 50 minutes at room temperature and terminated by filtration on Packard Unifilter GF/C (0.3% PEI) plates, followed by 2 wash cycles with ice-cold assay buffer.
as §3

T1 sequence (P50406 whole entry): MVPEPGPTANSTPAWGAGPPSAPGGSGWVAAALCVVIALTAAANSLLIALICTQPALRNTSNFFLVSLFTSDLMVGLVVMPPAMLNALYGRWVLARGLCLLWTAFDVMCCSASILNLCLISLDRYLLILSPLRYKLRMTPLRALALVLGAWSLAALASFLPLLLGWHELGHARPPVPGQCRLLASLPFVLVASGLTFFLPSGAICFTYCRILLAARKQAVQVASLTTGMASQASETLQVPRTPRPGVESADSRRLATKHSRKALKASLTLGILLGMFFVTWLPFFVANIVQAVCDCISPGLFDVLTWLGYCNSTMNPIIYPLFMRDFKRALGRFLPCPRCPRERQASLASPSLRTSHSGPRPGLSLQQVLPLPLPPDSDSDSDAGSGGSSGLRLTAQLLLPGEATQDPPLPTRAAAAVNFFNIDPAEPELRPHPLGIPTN
histamine H1 receptor, sequence (P35367 whole entry): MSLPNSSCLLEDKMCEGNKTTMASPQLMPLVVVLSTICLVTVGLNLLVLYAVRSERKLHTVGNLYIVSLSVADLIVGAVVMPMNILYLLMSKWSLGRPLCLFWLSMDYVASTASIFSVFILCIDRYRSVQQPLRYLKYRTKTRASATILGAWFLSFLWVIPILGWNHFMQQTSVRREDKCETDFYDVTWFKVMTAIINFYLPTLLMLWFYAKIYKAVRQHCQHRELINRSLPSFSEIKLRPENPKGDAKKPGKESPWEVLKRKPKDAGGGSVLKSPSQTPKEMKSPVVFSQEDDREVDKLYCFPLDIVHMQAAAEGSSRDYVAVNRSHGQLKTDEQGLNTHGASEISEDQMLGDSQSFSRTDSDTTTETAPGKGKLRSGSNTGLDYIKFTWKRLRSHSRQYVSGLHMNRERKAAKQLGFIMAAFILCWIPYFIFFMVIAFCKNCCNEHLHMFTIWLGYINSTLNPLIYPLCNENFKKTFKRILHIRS
T3 sequence (P35348 1-475 isoform P35348-2): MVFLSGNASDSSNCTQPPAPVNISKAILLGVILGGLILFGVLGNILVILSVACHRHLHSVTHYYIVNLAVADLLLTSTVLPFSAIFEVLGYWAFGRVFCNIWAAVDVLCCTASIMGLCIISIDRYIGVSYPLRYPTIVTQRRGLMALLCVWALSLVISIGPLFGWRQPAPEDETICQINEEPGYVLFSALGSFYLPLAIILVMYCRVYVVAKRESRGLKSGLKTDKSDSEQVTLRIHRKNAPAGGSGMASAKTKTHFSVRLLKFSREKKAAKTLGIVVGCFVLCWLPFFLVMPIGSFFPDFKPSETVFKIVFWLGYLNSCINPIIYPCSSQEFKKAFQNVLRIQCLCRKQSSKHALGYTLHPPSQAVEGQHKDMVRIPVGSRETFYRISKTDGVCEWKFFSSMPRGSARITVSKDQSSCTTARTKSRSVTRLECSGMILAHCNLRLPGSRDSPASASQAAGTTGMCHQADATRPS

On to `O=S(=O)(c1ccccc1)n1ccc2cc(C3CNC3)ccc21` [compound 2, 5-azetidin-3-yl-1-benzenesulfonyl-1H-indole, hydrochloride], for which the inhibition constant (Ki) in experiment [1] is < 5 nM; in experiment [2] it was > 10000 nM; in experiment [3] it was > 1000 nM; in experiment [4], > 10000 nM.
In the case of `O=S(=O)(c1ccc(-c2cnco2)cc1)n1ccc2cc(C3CNC3)ccc21` [compound 3, 5-azetidin-3-yl-1-(4-oxazol-5-yl-benzenesulfonyl)-1H-indole, hydrochloride], the Ki in experiment [1] was < 250 nM; in experiment [2] it was > 1000 nM.
Consider `CCCN1CC(c2ccc3c(ccn3S(=O)(=O)c3ccc(OC(F)F)cc3)c2)C1` [compound 4, 1-(4-Difluoromethoxy-benzenesulfonyl)-5-(1-propyl-azetidin-3-yl)-1H-indole, hydrochloride], for which the Ki in experiment [1] was < 50 nM; in experiment [2], > 1000 nM; in experiment [3], > 250 nM.
With `CCCN1CC(c2ccc3c(ccn3S(=O)(=O)c3ccccc3)c2)C1` [compound 5, 1-benzenesulfonyl-5-(1-propylazetidin-3-yl)-1H-indole, hydrochloride], the Ki was < 5 nM in experiment [1], > 1000 nM in experiment [2], > 250 nM in experiment [3] and > 1000 nM in experiment [4].
For the compound `CCCN1CC(c2ccc3c(ccn3S(=O)(=O)c3ccc(-c4cnco4)cc3)c2)C1` [compound 6, 1-(4-oxazol-5-yl-benzenesulfonyl)-5-(1-propylazetidin-3-yl)-1H-indole, hydrochloride], the Ki in experiment [1] is < 250 nM; in experiment [2] it was > 1000 nM.
Consider `O=S(=O)(c1ccccc1)N1CCc2cc(C3CNC3)ccc21` [compound 7, 5-azetidin-3-yl-1-benzenesulfonyl-2,3-dihydro-1H-indole, hydrochloride], for which the Ki in experiment [1] is < 5 nM; in experiment [2], > 10000 nM; in experiment [3], > 1000 nM; in experiment [4], > 1000 nM.
Regarding `O=S(=O)(c1ccc(-c2cnco2)cc1)N1CCc2cc(C3CNC3)ccc21` [compound 8, 5-azetidin-3-yl-1-(4-oxazol-5-yl-benzenesulfonyl)-2,3-dihydro-1H-indole], the Ki in experiment [1] is < 250 nM; in experiment [2] it was > 10000 nM.
For the compound `O=S(=O)(c1cccc(C(F)(F)F)c1)n1ccc2cc(C3CNC3)ccc21` [compound 19, 5-azetidin-3-yl-1-(3-trifluoromethyl-benzenesulfonyl)-1H-indole, hydrochloride], the Ki in experiment [1] was < 5 nM; in experiment [2], > 10000 nM; in experiment [3], > 1000 nM; in experiment [4] it was > 10000 nM.
On to `O=S(=O)(c1cccc(OC(F)(F)F)c1)n1ccc2cc(C3CNC3)ccc21` [compound 20, 5-Azetidin-3-yl-1-(3-trifluoromethoxybenzenesulfonyl)-1H-indole, hydrochloride], for which the Ki in experiment [1] is < 5 nM; in experiment [2], > 1000 nM; in experiment [3], > 1000 nM; in experiment [4], > 10000 nM.
Take `O=S(=O)(c1cccc(OC(F)F)c1)n1ccc2cc(C3CNC3)ccc21` [compound 21, 5-Azetidin-3-yl-1-(3-difluoromethoxybenzenesulfonyl)-1H-indole, hydrochloride]: the Ki in experiment [1] is < 5 nM; in experiment [2], > 1000 nM; in experiment [3], > 1000 nM; in experiment [4] it was > 10000 nM.
In the case of `O=S(=O)(c1ccccc1OC(F)(F)F)n1ccc2cc(C3CNC3)ccc21` [compound 23, 5-Azetidin-3-yl-1-(2-trifluoromethoxybenzenesulfonyl)-1H-indole], the Ki in experiment [1] was < 5 nM; in experiment [2] it was > 10000 nM; in experiment [3], > 1000 nM; in experiment [4], > 1000 nM.
In the case of `O=S(=O)(c1cccnc1)n1cc(C2CNC2)c2ccccc21` [compound 24, Azetidin-3-yl-1-(pyridine-3-sulfonyl)-1H-indole, hydrochloride], the figures for the Ki in experiment [1] and in experiment [2] were < 10 nM and > 10000 nM, respectively.
`CCCN1CC(c2ccc3c(ccn3S(=O)(=O)c3cccc(C(F)(F)F)c3)c2)C1` [compound 25, 5-(1-propyl-azetidin-3-yl)-1-(3-trifluoromethylbenzenesulfonyl)-1H-indole, hydrochloride]: the Ki was < 5 nM in experiment [1], > 1000 nM in experiment [2], > 250 nM in experiment [3] and > 1000 nM in experiment [4].
As to `CCCN1CC(c2ccc3c(ccn3S(=O)(=O)c3cccc(OC(F)(F)F)c3)c2)C1` [compound 26, 5-(1-Propylazetidin-3-yl)-1-(3-trifluoromethoxybenzenesulfonyl)-1H-indole, hydrochloride], the Ki in experiment [1] was < 5 nM; in experiment [2], > 1000 nM; in experiment [3], > 250 nM; in experiment [4] it was > 1000 nM.
As for `CCCN1CC(c2ccc3c(ccn3S(=O)(=O)c3cccc(OC(F)F)c3)c2)C1` [compound 27, 5-(1-Propylazetidin-3-yl)-1-(3-difluoromethoxybenzenesulfonyl)-1H-indole, hydrochloride], the Ki in experiment [1] was < 5 nM; in experiment [2] it was > 1000 nM; in experiment [3] it was > 250 nM; in experiment [4] it was > 1000 nM.
As to `CCN1CC(c2ccc3c(ccn3S(=O)(=O)c3ccccc3)c2)C1` [compound 28, 5-(1-Ethylazetidin-3-yl)-1-benzenesulfonyl-1H-indole, hydrochloride], the inhibitory constant (Ki) in experiment [1] was < 10 nM; in experiment [2], > 1000 nM.
For `CN1CC(c2ccc3c(ccn3S(=O)(=O)c3ccccc3)c2)C1` [compound 29, 5-(1-Methylazetidin-3-yl)-1-benzenesulfonyl-1H-indole, hydrochloride], in that order: < 10 nM and > 1000 nM.
“iodospiperone [[^125I]-iodospiperone, reference compound]”: the equilibrium dissociation constant (Kd) in experiment [2] (saturation binding experiments, HEK293 D2 membranes, read-out: KD of radioligand) came out at 0.22 nM.
